For this assay, the system named is SCI pain. As to conditions: in vivo.

Take `NCC1(CC(=O)O)CCCCC1` [gabapentin]: the “place preference in GFP (control AAV) SCI animals” value was “induced place preference”.
